Data from ChEMBL document CHEMBL4261591, “Antimicrobial 1,3,4-trisubstituted-1,2,3-triazolium salts” (2018).

Assays:
Assay type in all cases: functional
Bacillus subtilis = assay: microbe, parasite or virus in culture; details: ATCC 6051, 24 h
Description: Antibacterial activity against Bacillus subtilis ATCC 6051 after 24 hrs by CLSI broth microdilution assay

[1] = system: Staphylococcus epidermidis; assay: microbe, parasite or virus in culture; details: ATCC 14990, 24 h
Description: Antibacterial activity against Staphylococcus epidermidis ATCC 14990 after 24 hrs by CLSI broth microdilution assay

Escherichia coli = assay: microbe, parasite or virus in culture; details: ATCC 25922, 24 h
Description: Antibacterial activity against Escherichia coli ATCC 25922 after 24 hrs by CLSI broth microdilution assay

Klebsiella aerogenes = assay: microbe, parasite or virus in culture; details: ATCC 13048, 24 h
Description: Antibacterial activity against Enterobacter aerogenes ATCC 13048 after 24 hrs by CLSI broth microdilution assay

Candida albicans = assay: microbe, parasite or virus in culture; details: ATCC 90028, 24 h
Description: Antifungal activity against Candida albicans ATCC 90028 after 24 hrs by CLSI broth microdilution assay

Saccharomyces cerevisiae = assay: microbe, parasite or virus in culture; details: ATCC 9763, 24 h
Description: Antifungal activity against Saccharomyces cerevisiae ATCC 9763 after 24 hrs by CLSI broth microdilution assay

[2] = Selectivity index, ratio of MIC for Escherichia coli ATCC 25922 to MIC for Bacillus subtilis ATCC 6051
[3] = Selectivity index, ratio of MIC for Enterobacter aerogenes ATCC 13048 to MIC for Bacillus subtilis ATCC 6051
[4] = Selectivity index, ratio of MIC for Candida albicans ATCC 90028 to MIC for Bacillus subtilis ATCC 6051
[5] = Selectivity index, ratio of MIC for Saccharomyces cerevisiae ATCC 9763 to MIC for Bacillus subtilis ATCC 6051
[6] = Selectivity index, ratio of MIC for Escherichia coli ATCC 25922 to MIC for Staphylococcus epidermidis ATCC 14990
[7] = Selectivity index, ratio of MIC for Enterobacter aerogenes ATCC 13048 to MIC for Staphylococcus epidermidis ATCC 14990
[8] = Selectivity index, ratio of MIC for Candida albicans ATCC 90028 to MIC for Staphylococcus epidermidis ATCC 14990
[9] = Selectivity index, ratio of MIC for Saccharomyces cerevisiae ATCC 9763 to MIC for Staphylococcus epidermidis ATCC 14990

Structure (SMILES) | MIC (Bacillus subtilis) | MIC [1] | MIC (Escherichia coli) | MIC (Klebsiella aerogenes) | MIC (Candida albicans) | MIC (Saccharomyces cerevisiae) | Selectivity Index [2] | Selectivity Index [3] | Selectivity Index [4] | Selectivity Index [5] | Selectivity Index [6] | Selectivity Index [7] | Selectivity Index [8] | Selectivity Index [9]
CCCCc1cn(Cc2ccccc2)n[n+]1Cc1ccccc1 | > 250 µM | > 250 µM | > 250 µM | > 250 µM | > 250 µM | > 250 µM |  |  |  |  |  |  |  | 
CCCCc1cn(Cc2ccccc2)n[n+]1Cc1ccc(C(C)(C)C)cc1 | 8 µM | 8 µM | > 250 µM | > 250 µM | 250 µM | 250 µM |  |  |  |  |  |  |  | 
CCCCCCCCCCCCc1cn(Cc2ccccc2)n[n+]1Cc1ccccc1 | 2 µM | 4 µM | 16 µM | 16 µM | 16 µM | 16 µM |  |  |  |  |  |  |  | 
CCCCCCCCc1cn(-c2ccc(C)cc2)n[n+]1Cc1ccccc1 | 4 µM | 8 µM | > 250 µM | > 250 µM | 250 µM | 250 µM | > 50 | > 50 | > 50 | > 50 | > 50 | > 50 | > 50 | > 50
CCCCCCCCc1cn(Cc2ccccc2)n[n+]1Cc1ccccc1 | 8 µM | 8 µM | > 250 µM | > 250 µM | 250 µM | 250 µM |  |  |  |  |  |  |  | 
CCCCCCCCc1cn(Cc2ccccc2)n[n+]1Cc1ccc(C(C)(C)C)cc1 | 1 µM | 2 µM | 31 µM | 31 µM | 8 µM | 16 µM |  |  |  |  |  |  |  | 
CCCCc1cn(-c2ccc(C)cc2)n[n+]1Cc1ccc(C(C)(C)C)cc1 | 4 µM | 4 µM | 250 µM | > 250 µM | 250 µM | 250 µM | > 50 | > 50 | > 50 | > 50 | > 50 | > 50 | > 50 | > 50
Cc1ccc(-n2cc(-c3ccccc3)[n+](Cc3ccccc3)n2)cc1 | > 250 µM | > 250 µM | > 250 µM | > 250 µM | > 250 µM | > 250 µM |  |  |  |  |  |  |  | 
Cc1ccc(-[n+]2nn(Cc3ccc(C(C)(C)C)cc3)cc2-c2ccccc2)cc1 | 16 µM | 16 µM | > 250 µM | > 250 µM | > 250 µM | > 250 µM |  |  |  |  |  |  |  | 
Cc1ccc(-[n+]2nn(Cc3ccccc3)cc2-c2ccccc2)cc1 | > 250 µM | > 250 µM | > 250 µM | > 250 µM | > 250 µM | > 250 µM |  |  |  |  |  |  |  | 
CCCCCCCCCCCCc1cn(Cc2ccccc2)n[n+]1Cc1ccc(C(C)(C)C)cc1 | 2 µM | 2 µM | 250 µM | 250 µM | 8 µM | 16 µM |  |  |  |  |  |  |  | 
Cc1ccc(-n2cc(-c3ccccc3)[n+](Cc3ccc(C(C)(C)C)cc3)n2)cc1 | 8 µM | 8 µM | > 250 µM | > 250 µM | > 250 µM | > 250 µM |  |  |  |  |  |  |  | 
CCCCCCCCCCCCc1cn(-c2ccc(C)cc2)n[n+]1Cc1ccc(C(C)(C)C)cc1 | 2 µM | 2 µM | 250 µM | 250 µM | 4 µM | 4 µM |  |  |  |  |  |  |  | 
CCCCc1cn(-c2ccc(C)cc2)n[n+]1Cc1ccccc1 | > 250 µM | > 250 µM | > 250 µM | > 250 µM | > 250 µM | > 250 µM |  |  |  |  |  |  |  | 
CCCCCCCCCCCCc1cn(-c2ccc(C)cc2)n[n+]1Cc1ccccc1 | 1 µM | 2 µM | 8 µM | 8 µM | 8 µM | 8 µM |  |  |  |  |  |  |  | 
CCCCCCCCc1cn(-c2ccc(C)cc2)n[n+]1Cc1ccc(C(C)(C)C)cc1 | 2 µM | 2 µM | 16 µM | 16 µM | 4 µM | 8 µM |  |  |  |  |  |  |  | 
